Reference: patent US6559101B2, “N- (5, 7-dimethoxy [1, 2, 4] triazolo [1, 5-a] pyrimidin-2-yl) arylsulfonamide compounds and their use as herbicides” (Dow AgroSciences LLC, priority 2000, dated 2003)

Key:
[1] = tested on: Rox orange sorghum (Sorghum bicolor); test: Preemergence herbicidal activity; assay type: in vivo; conditions: 17.5 g/Ha; scored after 3 weeks; 0 no injury, 100 complete kill or no germination
How it was run: (§1)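 Visual injury score (0% = none, 100% = complete kill or no germination) vs untreated controls at 3 weeks. Pre-emergence soil spray on seeded pots, max 4.48 kg/ha. Greenhouse: ~15 h photoperiod, day 23-29 °C, night 22-28 °C, top-irrigated.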

[2] = tested on: wild poinsettia (Euphorbia heterophylla); test: Preemergence herbicidal activity; assay type: in vivo; conditions: 17.5 g/Ha; scored after 3 weeks; 0 no injury, 100 complete kill or no germination
How it was run: as §1

[3] = tested on: giant foxtail (Setaria faberi); test: Preemergence herbicidal activity; assay type: in vivo; conditions: 17.5 g/Ha; scored after 3 weeks; 0 no injury, 100 complete kill or no germination
How it was run: as §1

[4] = tested on: pigweed (Amaranthus retroflexus); test: Preemergence herbicidal activity; assay type: in vivo; conditions: 17.5 g/Ha; scored after 3 weeks; 0 no injury, 100 complete kill or no germination
How it was run: as §1

[5] = tested on: barnyardgrass (Echinochloa crus-galli); test: Preemergence herbicidal activity; assay type: in vivo; conditions: 17.5 g/Ha; scored after 3 weeks; 0 no injury, 100 complete kill or no germination
How it was run: as §1

[6] = tested on: crabgrass (Digitaria sanguinalis); test: Preemergence herbicidal activity; assay type: in vivo; conditions: 17.5 g/Ha; scored after 3 weeks; 0 no injury, 100 complete kill or no germination
How it was run: as §1

wild oats (Avena fatua) [7] = test: Preemergence herbicidal activity; assay type: in vivo; conditions: 17.5 g/Ha; scored after 3 weeks; 0 no injury, 100 complete kill or no germination
How it was run: as §1

[8] = tested on: velvetleaf (Abutilion theophrasti); test: Preemergence herbicidal activity; assay type: in vivo; conditions: 17.5 g/Ha; scored after 3 weeks; 0 no injury, 100 complete kill or no germination
How it was run: as §1

[9] = tested on: blackgrass (Alopecurus myosuroides); test: Preemergence herbicidal activity; assay type: in vivo; conditions: 17.5 g/Ha; scored after 3 weeks; 0 no injury, 100 complete kill or no germination
How it was run: as §1

[10] = tested on: lambsquarters (Chenopodium album); test: Preemergence herbicidal activity; assay type: in vivo; conditions: 17.5 g/Ha; scored after 3 weeks; 0 no injury, 100 complete kill or no germination
How it was run: as §1

[11] = tested on: morningglory (Ipomoea hederacea); test: Preemergence herbicidal activity; assay type: in vivo; conditions: 17.5 g/Ha; scored after 3 weeks; 0 no injury, 100 complete kill or no germination
How it was run: as §1

[12] = tested on: cocklebur (Xanthium strumarium); test: Preemergence herbicidal activity; assay type: in vivo; conditions: 17.5 g/Ha; scored after 3 weeks; 0 no injury, 100 complete kill or no germination
How it was run: as §1

[13] = tested on: wild buckwheat (Polygonum convolvulus); test: Postemergence herbicidal activity; assay type: in vivo; conditions: 7.8 ppm; scored after 2 weeks; 0 no injury, 100 complete kill
How it was run: (§2)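 Visual injury rating, 0 (none) to 100% (complete kill), 2 weeks after postemergence spray versus untreated controls. Plants treated at 1st–2nd true leaf; spray rate 1 ppm ≈ 1 g/ha. Sub-irrigated after treatment to prevent wash-off.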

viola (Viola tricolor) = test: Postemergence herbicidal activity; assay type: in vivo; conditions: 7.8 ppm; scored after 2 weeks; 0 no injury, 100 complete kill
How it was run: as §2

[14] = tested on: Rox orange sorghum (Sorghum bicolor); test: Postemergence herbicidal activity; assay type: in vivo; conditions: 7.8 ppm; scored after 2 weeks; 0 no injury, 100 complete kill
How it was run: as §2

[15] = tested on: giant foxtail (Setaria faberi); test: Postemergence herbicidal activity; assay type: in vivo; conditions: 7.8 ppm; scored after 2 weeks; 0 no injury, 100 complete kill
How it was run: as §2

[16] = tested on: pigweed (Amaranthus retroflexus); test: Postemergence herbicidal activity; assay type: in vivo; conditions: 7.8 ppm; scored after 2 weeks; 0 no injury, 100 complete kill
How it was run: as §2

wild oats (Avena fatua) [17] = test: Postemergence herbicidal activity; assay type: in vivo; conditions: 7.8 ppm; scored after 2 weeks; 0 no injury, 100 complete kill
How it was run: as §2

[18] = tested on: velvetleaf (Abutilion theophrasti); test: Postemergence herbicidal activity; assay type: in vivo; conditions: 7.8 ppm; scored after 2 weeks; 0 no injury, 100 complete kill
How it was run: as §2

[19] = tested on: blackgrass (Alopecurus myosuroides); test: Postemergence herbicidal activity; assay type: in vivo; conditions: 7.8 ppm; scored after 2 weeks; 0 no injury, 100 complete kill
How it was run: as §2

[20] = tested on: lambsquarters (Chenopodium album); test: Postemergence herbicidal activity; assay type: in vivo; conditions: 7.8 ppm; scored after 2 weeks; 0 no injury, 100 complete kill
How it was run: as §2

[21] = tested on: morningglory (Ipomoea hederacea); test: Postemergence herbicidal activity; assay type: in vivo; conditions: 7.8 ppm; scored after 2 weeks; 0 no injury, 100 complete kill
How it was run: as §2

[22] = tested on: cocklebur (Xanthium strumarium); test: Postemergence herbicidal activity; assay type: in vivo; conditions: 7.8 ppm; scored after 2 weeks; 0 no injury, 100 complete kill
How it was run: as §2

[23] = tested on: chickweed (Stellaria media); test: Postemergence herbicidal activity; assay type: in vivo; conditions: 7.8 ppm; scored after 2 weeks; 0 no injury, 100 complete kill
How it was run: as §2

[24] = tested on: Windgrass (Apera spica-venta); test: Postemergence herbicidal activity with safener; assay type: in vivo; conditions: 25 g/ha postemergence; 0 no injury, 100 complete kill
Text: (§3) Pre-formulated test materials utilized were as follows: Compound 15 as a 30 g ai/L emulsified concentrate (3% Compound 15, 3% Agrimer AL-10 (copolymer of 1-ethenyl-2-pyrolidinone and 1-butene), 94% N-methyl pyrrolidone w/w) and cloquintocet-mexyl (CQC) as a 120 g ai/L emulsified concentrate (12% cloquintocet-mexyl, 2.5% Toximul D, 2.5% Toximul H, [blends of calcium dodecylbenzenesulfonate plus castor oil ehtoxylates, nonylphenol ethoxylates and EO-PO block copolymers] 83% aromatic 200 w/w). Diluted stock solutions of formulated materials were made in distilled water. Final spray solutions were made by adding specified aliquots of diluted stock materials to a solution containing distilled water and X-77 surfactant at 0.25% v/v. The solutions were applied using a mechanized track-sprayer calibrated to deliver 187 1/ha carrier volume with a nozzle (flat fan) pressure of 276 kilopascals.
(§4) Assessment of weed control and crop injury was taken a 3 weeks after application. Plant injury was visually assessed on a scale of 0 to 100% with 0 equal to no injury and 100 equal to complete kill.

[25] = tested on: Italian ryegrass (Lolium multiflorum); test: Postemergence herbicidal activity with safener; assay type: in vivo; conditions: 25 g/ha postemergence; 0 no injury, 100 complete kill
Text: as §3, §4

Wild oat (Avena fatua) = test: Postemergence herbicidal activity with safener; assay type: in vivo; conditions: 25 g/ha postemergence; 0 no injury, 100 complete kill
Text: as §3, §4

[26] = tested on: blackgrass (Alopecurus myosuroides); test: Postemergence herbicidal activity with safener; assay type: in vivo; conditions: 25 g/ha postemergence; 0 no injury, 100 complete kill
Text: as §3, §4

[27] = tested on: Green foxtail (Setaria viridis); test: Postemergence herbicidal activity with safener; assay type: in vivo; conditions: 25 g/ha postemergence; 0 no injury, 100 complete kill
Text: as §3, §4

[28] = tested on: Spring wheat (Triticum aestivum); test: Postemergence herbicidal activity with safener, crop injury; assay type: in vivo; conditions: 25 g/ha postemergence; 3 weeks after application; 0 no injury, 100 complete kill
Text: as §3, §4

Row | SMILES | Preemergence herbicidal activity SORBI [1] | Preemergence herbicidal activity EPHHL [2] | Preemergence herbicidal activity SETFA [3] | Preemergence herbicidal activity AMARE [4] | Preemergence herbicidal activity ECHCG [5] | Preemergence herbicidal activity DIGSA [6] | Preemergence herbicidal activity AVEFA (wild oats (Avena fatua) [7]) | Preemergence herbicidal activity ABUTH [8] | Preemergence herbicidal activity ALOMY [9] | Preemergence herbicidal activity CHEAL [10] | Preemergence herbicidal activity IPOHE [11] | Preemergence herbicidal activity XANST [12] | Postemergence herbicidal activity POLCO [13] | Postemergence herbicidal activity VIOTR (viola (Viola tricolor)) | Postemergence herbicidal activity SORBI [14] | Postemergence herbicidal activity SETFA [15] | Postemergence herbicidal activity AMARE [16] | Postemergence herbicidal activity AVEFA (wild oats (Avena fatua) [17]) | Postemergence herbicidal activity ABUTH [18] | Postemergence herbicidal activity ALOMY [19] | other results
1 | COc1cc(OC)n2nc(NS(=O)(=O)c3c(Cl)cccc3Cl)nc2n1 [Compound 1, N-(5,7-dimethoxy[1,2,4]triazolo-[1,5-a]pyrimidin-2-yl)-2,6-dichlorobenzene-sulfonamide] | 98% | 70% | 95% | 100% | 98% | 98% | 100% | 99% | 100% | 98% | 80% | 100% | 95% | 75% | 90% | 98% | 90% | 95% | 85% | 90% | melting point: 211 to 213 °C; Postemergence herbicidal activity CHEAL [20]: 90%; Postemergence herbicidal activity IPOHE [21]: 80%; Postemergence herbicidal activity XANST [22]: 85%; Postemergence herbicidal activity STEME [23]: 95%
2 | COc1cc(OC)n2nc(NS(=O)(=O)c3c(C(F)(F)F)ccnc3OC)nc2n1 [Compound 15, N-(5,7-dimethoxy[1,2,4]triazolo[1,5-a]pyrimidin-2-yl)-2-methoxy-4-(trifluoromethyl)-3-pyridinesulfonamide] | 100% | 98% | 100% | 70% | 98% | 98% | 98% | 95% | 100% | 100% | 95% | 95% | 98% | 95% | 98% | 100% | 98% | 98% | 95% | 99% | % Control 3 Weeks After Application APSEV [24]: 100%; % Control 3 Weeks After Application LOLMU [25]: 99%; % Control 3 Weeks After Application AVEFA (Wild oat (Avena fatua)): 99%; % Control 3 Weeks After Application ALOMY [26]: 99%; % Control 3 Weeks After Application SETVI [27]: 99%; % Injury TRZAS [28]: 47%; Postemergence herbicidal activity CHEAL [20]: 95%; Postemergence herbicidal activity XANST [22]: 90%; Postemergence herbicidal activity STEME [23]: 98%
